Measurements taken from patent US20040258620A1, “(Ethylene)-( propylene)-triaminepentaacetic acid derivatives, process for their production, and their use for the production of pharmaceutical agents” (priority 2001, published 2004).
Where “and” joins values, the source holds several entries; their conditions need not be identical. Equal entries are not always repeated. Each block holds one compound with its values, some of them ahead of it.

How the values were obtained:
[1] = Proton relaxivities (1H NMRD profiles) of Gd(EPTPA-bz-NO2); format: physicochemical
Description: According to the ^17O chemical shifts, the complex has one inner sphere water molecule. […] The water exchange rate obtained for […]) is in the optimal range to attain high proton relaxivities. This property, together with the high thermodynamic stability, is a unique feature among Gd(III) chelates known so far and it makes […]) an ideal synthon to be attached to any rigid, slowly tumbling macromolecular agent. […] (bottom curve) and 25° C. (top curve).

[2] = Peak-to-peak line widths of the EPR band at 0.34 T; format: physicochemical; design: unit not given here
Source text: (§1) The Gd(EPTPA-bz-NO2) complex (Formula VII, Z is NO2) has been investigated by ^17O NMR, EPR and ^1H NMRD.

[3] = Simultaneous analysis of 17O NMR, EPR and NMRD data
Source text: The ^17O NMR, NMRD and EPR experimental data (points) and the fitted curves (lines) as obtained in a simultaneous analysis, according to the method of Powell et al., J. Am. Chem. Soc.

[4] = Variable temperature 17O NMR relaxation rates and chemical shifts of GdEPTPA-bz-NO2; format: physicochemical; conditions: for ^17O NMR T1 / ^17O NMR T2 / ^17O NMR ν / ^17O NMR chemical shift Δw / ^17O NMR reduced chemical shift Δwr: C = 55.79 mM; for ^17O NMR T1 / ^17O NMR T2 / ^17O NMR ν: pH = 6.0; for ^17O NMR chemical shift Δw / ^17O NMR reduced chemical shift Δwr: pH = 6.0, reference = HClO4
Source text: as §1

[5] = cited from earlier work

Proton relaxivity ([1]; 24.8° C., proton Larmor frequency 0.022 MHz): 8.54 mM⁻¹ s⁻¹
Proton relaxivity ([1]; 24.8° C., proton Larmor frequency 0.036 MHz): 8.63 mM⁻¹ s⁻¹
Proton relaxivity ([1]; 24.8° C., proton Larmor frequency 0.061 MHz): 8.69 mM⁻¹ s⁻¹
Proton relaxivity ([1]; 24.8° C., proton Larmor frequency 0.101 MHz): 8.34 mM⁻¹ s⁻¹
Proton relaxivity ([1]; 24.8° C., proton Larmor frequency 0.168 MHz): 8.47 mM⁻¹ s⁻¹
Proton relaxivity ([1]; 24.8° C., proton Larmor frequency 0.280 MHz): 8.55 mM⁻¹ s⁻¹
Proton relaxivity ([1]; 24.8° C., proton Larmor frequency 0.467 MHz): 8.21 mM⁻¹ s⁻¹
Proton relaxivity ([1]; 24.8° C., proton Larmor frequency 0.778 MHz): 8.29 mM⁻¹ s⁻¹ and 8.39 mM⁻¹ s⁻¹
Proton relaxivity ([1]; 24.8° C., proton Larmor frequency 2.159 MHz): 7.41 mM⁻¹ s⁻¹
Proton relaxivity ([1]; 24.8° C., proton Larmor frequency 3.598 MHz): 7.23 mM⁻¹ s⁻¹
Proton relaxivity ([1]; 24.8° C., proton Larmor frequency 5.999 MHz): 6.33 mM⁻¹ s⁻¹
Proton relaxivity ([1]; 24.8° C., proton Larmor frequency 9.998 MHz): 5.56 mM⁻¹ s⁻¹
Proton relaxivity ([1]; 24.8° C., proton Larmor frequency 12.001 MHz): 5.47 mM⁻¹ s⁻¹
Proton relaxivity ([1]; 24.8° C., proton Larmor frequency 14.002 MHz): 5.15 mM⁻¹ s⁻¹
Proton relaxivity ([1]; 24.8° C., proton Larmor frequency 16.000 MHz): 4.98 mM⁻¹ s⁻¹
Proton relaxivity ([1]; 24.8° C., proton Larmor frequency 18.002 MHz): 4.91 mM⁻¹ s⁻¹
Proton relaxivity ([1]; 24.8° C., proton Larmor frequency 20.001 MHz): 4.73 mM⁻¹ s⁻¹
Proton relaxivity ([1]; 37.3° C., proton Larmor frequency 0.022 MHz): 6.47 mM⁻¹ s⁻¹
Proton relaxivity ([1]; 37.3° C., proton Larmor frequency 0.036 MHz): 6.56 mM⁻¹ s⁻¹
Proton relaxivity ([1]; 37.3° C., proton Larmor frequency 0.061 MHz): 6.44 mM⁻¹ s⁻¹
Proton relaxivity ([1]; 37.3° C., proton Larmor frequency 0.101 MHz): 6.90 mM⁻¹ s⁻¹
Proton relaxivity ([1]; 37.3° C., proton Larmor frequency 0.168 MHz): 6.55 mM⁻¹ s⁻¹
Proton relaxivity ([1]; 37.3° C., proton Larmor frequency 0.280 MHz): 6.57 mM⁻¹ s⁻¹
Proton relaxivity ([1]; 37.3° C., proton Larmor frequency 0.467 MHz): 6.49 mM⁻¹ s⁻¹
Proton relaxivity ([1]; 37.3° C., proton Larmor frequency 0.778 MHz): 6.19 mM⁻¹ s⁻¹ and 6.36 mM⁻¹ s⁻¹
Proton relaxivity ([1]; 37.3° C., proton Larmor frequency 2.159 MHz): 5.80 mM⁻¹ s⁻¹
Proton relaxivity ([1]; 37.3° C., proton Larmor frequency 3.598 MHz): 5.67 mM⁻¹ s⁻¹
Proton relaxivity ([1]; 37.3° C., proton Larmor frequency 5.999 MHz): 5.21 mM⁻¹ s⁻¹
Proton relaxivity ([1]; 37.3° C., proton Larmor frequency 9.998 MHz): 4.42 mM⁻¹ s⁻¹
Proton relaxivity ([1]; 37.3° C., proton Larmor frequency 12.001 MHz): 4.18 mM⁻¹ s⁻¹
Proton relaxivity ([1]; 37.3° C., proton Larmor frequency 14.002 MHz): 4.20 mM⁻¹ s⁻¹
Proton relaxivity ([1]; 37.3° C., proton Larmor frequency 16.000 MHz): 4.26 mM⁻¹ s⁻¹
Proton relaxivity ([1]; 37.3° C., proton Larmor frequency 18.002 MHz): 4.12 mM⁻¹ s⁻¹
ΔHpp, peak-to-peak line width of the EPR band ([2]; T 3 ° C.): 363.25
ΔHpp, peak-to-peak line width of the EPR band ([2]; T 23.5 ° C.): 297.4
ΔHpp, peak-to-peak line width of the EPR band ([2]; T 34.1 ° C.): 286
ΔHpp, peak-to-peak line width of the EPR band ([2]; T 40.3 ° C.): 280.2
ΔHpp, peak-to-peak line width of the EPR band ([2]; T 47.6 ° C.): 283.15
ΔHpp, peak-to-peak line width of the EPR band ([2]; T 56.3 ° C.): 297.4
ΔHpp, peak-to-peak line width of the EPR band ([2]; T 72.4 ° C.): 326
^17O NMR T1 ([4]; T 274.5 K): 0.00301 s
^17O NMR T2 ([4]; T 274.5 K): 0.00135 s
^17O NMR ν ([4]; T 274.5 K): −3678.6 Hz
^17O NMR chemical shift Δw ([4]; T 274.5 K): −133.1 Hz
^17O NMR reduced chemical shift Δwr ([4]; T 274.5 K): −8.33E+05 Hz
^17O NMR T1 ([4]; T 286.7 K): 0.00428 s
^17O NMR T2 ([4]; T 286.7 K): 0.00167 s
^17O NMR ν ([4]; T 286.7 K): −3686.0 Hz
^17O NMR chemical shift Δw ([4]; T 286.7 K): −125.36 Hz
^17O NMR reduced chemical shift Δwr ([4]; T 286.7 K): −7.84E+05 Hz
^17O NMR T1 ([4]; T 293.5 K): 0.00513 s
^17O NMR T2 ([4]; T 293.5 K): 0.00198 s
^17O NMR ν ([4]; T 293.5 K): −3690.4 Hz
^17O NMR chemical shift Δw ([4]; T 293.5 K): −125.25 Hz
^17O NMR reduced chemical shift Δwr ([4]; T 293.5 K): −7.84E+05 Hz
^17O NMR T1 ([4]; T 298.0 K): 0.00599 s
^17O NMR T2 ([4]; T 298.0 K): 0.00263 s
^17O NMR ν ([4]; T 298.0 K): −3705.7 Hz
^17O NMR chemical shift Δw ([4]; T 298.0 K): −123.5 Hz
^17O NMR reduced chemical shift Δwr ([4]; T 298.0 K): −7.73E+05 Hz
^17O NMR T1 ([4]; T 306.7 K): 0.00734 s
^17O NMR T2 ([4]; T 306.7 K): 0.00263 s
^17O NMR ν ([4]; T 306.7 K): −3702.7 Hz
^17O NMR chemical shift Δw ([4]; T 306.7 K): −120.4 Hz
^17O NMR reduced chemical shift Δwr ([4]; T 306.7 K): −7.53E+05 Hz
^17O NMR T1 ([4]; T 324.2 K): 0.0104 s
^17O NMR T2 ([4]; T 324.2 K): 0.00425 s
^17O NMR ν ([4]; T 324.2 K): −3751.5 Hz
^17O NMR chemical shift Δw ([4]; T 324.2 K): −121.2 Hz
^17O NMR reduced chemical shift Δwr ([4]; T 324.2 K): −7.58E+05 Hz
^17O NMR T1 ([4]; T 338.7 K): 0.0137 s
^17O NMR T2 ([4]; T 338.7 K): 0.00616 s
^17O NMR ν ([4]; T 338.7 K): −3764.2 Hz
^17O NMR chemical shift Δw ([4]; T 338.7 K): −99.4 Hz
^17O NMR reduced chemical shift Δwr ([4]; T 338.7 K): −6.22E+05 Hz
^17O NMR T1 ([4]; T 359.7 K): 0.0189 s
^17O NMR T2 ([4]; T 359.7 K): 0.00967 s
^17O NMR ν ([4]; T 359.7 K): −3803.0 Hz
^17O NMR chemical shift Δw ([4]; T 359.7 K): −95.8 Hz
^17O NMR reduced chemical shift Δwr ([4]; T 359.7 K): −5.99E+05 Hz
inner sphere water molecules of the complex ([4]; according to the ^17O chemical shifts): one
SMILES: O=C([O-])CN(CCCN(CC(=O)[O-])CC(Cc1ccc([N+](=O)[O-])cc1)N(CC(=O)[O-])CC(=O)[O-])CC(=O)[O-].[Gd+3] (stereo not shown) [Gd(EPTPA-bz-NO2)]
water exchange rate kex^298 [3]: 1.4e+08 s⁻¹
water exchange rate, times higher than that measured on Gd(DTPA) ([3]; relative to Gd(DTPA)): 40 times

SMILES: O=C([O-])CN(CCCN(CC(=O)[O-])CC(=O)[O-])CCN(CC(=O)[O-])CC(=O)[O-].[Gd+3] [Gd(III)(EPTPA), Gd(III) complex of 3,6,10-tri(carboxymethly)-3,6,10-triazadodecanedioic acid]
thermodynamic stability constant, logo ([5]; determined by potentiometry (Wang et al, Dalton, 1998)): 22.77

SMILES: O=C([O-])CN1CCCN(CC(=O)[O-])CCN(CC(=O)[O-])CCN(CC(=O)[O-])CC1.[Gd+3] [Gd(III)(TRITA)]
thermodynamic stability constant, logβ ([5]; determined by potentiometry [Clarke and Martell, Inorg. Chim, Acta, 1991]): 19.2
